Assay results from US6462171B1, “Peptides and pharmaceutical compositions thereof for treatment of disorders or diseases associated with abnormal protein folding into amyloid or amyloid-like deposits” (New York University, priority 1995, dated 2002).
Where “and” joins values, the source holds several entries; their conditions need not be identical. Equal values may be shown once. Read-outs that look alike come from different tables or passages of the source.

What was measured:
[1] = background art; cited from earlier work
Aβ1-42 = Aβ1-42 (Homo sapiens, UniProt P05067); assay: Thioflavine T fluorometric assay of amyloid formation by Aβ1-42; format: biochemical; conditions: for % of amyloid Aβ1-42: amyloid remaining, 30 μg Aβ with 10-fold molar excess of peptide, 2 days, room temperature, 0.1M tris pH 7.6, Aβ alone = 100
Aβ1-40 [2] = assay: Thioflavine T fluorometric assay of amyloid formation by Aβ1-40; format: biochemical; conditions: for % of amyloid Aβ1-40: amyloid remaining, 30 μg Aβ with 10-fold molar excess of peptide, 2 days, room temperature, 0.1M tris pH 7.6, Aβ alone = 100; for amyloid formed, as % of the amyloid detectable in the absence of inhibitor: 24 h, Aβ 1 mg/ml
PrP106-126 = PrP106-126 (Homo sapiens, UniProt P04156); conditions: same concentration as iPrP-12aa
[3] = tested on: amyloid A (SEQ ID NO: 13); assay: Fibril formation by the amyloidogenic peptide of amyloid A; format: biochemical; conditions: 1 mg/ml, 24 hours, molar ratio 1:5 or 1:20
Protocol: (§1) FIG. 8 is a bar graph showing the effect of anti-amyloid peptide 1 on the amyloid formation by Aβ and of peptides derived from the amyloidogenic sequence of gelsolin amyloid and amyloid A. Either β or the fifteen amino acid peptides containing the amyloidogenic sequence of gelsolin amyloid (SEQ ID NO: 12) and amyloid A (SEQ ID NO: 13) were incubated in a concentration of 1 mg/ml for 24 hours without and with anti-amyloid peptide 1 in a molar ratio of 1:5 or 1:20.

[4] = tested on: gelsolin amyloid (SEQ ID NO: 12); assay: Fibril formation by the amyloidogenic peptide of gelsolin amyloid; format: biochemical; conditions: 1 mg/ml, 24 hours, molar ratio 1:5 or 1:20
Protocol: as §1

Aβ [5] = target: T1, Aβ (Homo sapiens, UniProt P05067); assay: Redissolution of preformed Aβ fibrils by anti-amyloid peptide 1; format: biochemical; conditions: molar ratio 1:50 (Aβ:anti-amyloid peptide 1), 15 minutes to 24 hours
Aβ [6] = target: T1, Aβ; assay: Aβ amyloid fibril formation in vitro (Aβ variant not named); format: biochemical; conditions: 50-fold molar excess over soluble amyloid monomers
[7] = Aggregation of the peptide incubated alone; format: physicochemical; conditions: for amyloid-like material formed by the peptide alone, electron microscopy: 6 days, same concentration as with Aβ
Protocol: Based on these criteria, an 11 amino acid peptide, called inhibitor of Aβ fibrillogenesis peptide (iAβ) was designed, which has a low probability of adopting a β-sheet conformation due to the presence of proline residues (FIG. 9). The circular dichroism spectrum of iAβ in aqueous solution was typical of unordered structures (FIG. 10). Samples of iAβ at different concentrations as well as samples incubated for several days have similar spectra (FIG. 10).
The inhibition of fibril formation and the dissolution of preformed fibrils by iAβ was also analyzed by negative-staining electron microscopy (FIGS. 15a -f). Aβ1-40 (2 mg/ml) preincubated for 6 days at 37° C. formed typical 8-10 nm unbranched fibrils (Castano et al., biochem. Biophys. Res. Commun. 141:782-789, 1986) (FIG. 15a).

Aβ1-40 [8] = assay: Negative-staining electron microscopy of Aβ1-40 fibril formation and dissolution; format: biochemical; conditions: for effect on Aβ1-40 fibril formation by electron microscopy: Aβ1-40 2 mg/ml, 40-fold excess from the start, 6 days, 37° C.
[9] = target: Aβ with heparan-sulfate proteoglycan (Homo sapiens, UniProt P05067); assay: Heparan-sulfate proteoglycan-induced Aβ fibrillogenesis; format: biochemical; conditions: preliminary experiments
Aβ1-40 [10] = assay: Aβ-iAβ binding by quenching of intrinsic Tyr10 fluorescence of Aβ
Aβ1-40 fibrils = Aβ1-40 fibrils (Homo sapiens, UniProt P05067); assay: Dissolution of preformed Aβ1-40 fibrils, fluorometric quantitation; format: biochemical
Aβ1-42 fibrils = Aβ1-42 fibrils (Homo sapiens, UniProt P05067); assay: Dissolution of preformed Aβ1-42 fibrils, fluorometric quantitation; format: biochemical; conditions: 40-fold molar excess of iAβ, 24 h incubation
[11] = tested on: amyloid-A (AA) deposition; assay: Experimental murine model of amyloid-A amyloidosis (AEF and silver nitrate), amyloid in spleen; format: in vivo, BALB/c mice
[12] = target: T2, Aβ1-40 with human plasma apolipoprotein E (Homo sapiens, UniProt P05067); assay: Promotion of Aβ fibrillogenesis induced by apolipoprotein E, thioflavine T assay; format: biochemical; conditions: 30 μg Aβ1-40, 2.4 μg apoE, 1:10 (Aβ:iAβ), 24 h, room temperature
T2 construct: 30 μg of Aβ1-40 were incubated with or without 2.4 μg of human plasma apolipoprotein E; made in house; host or cells: Aβ1-40: chemical solid-phase synthesis
Protocol: Samples of Aβ alone or Aβ/apoE were incubated also with 1:10 (Aβ:iAβ) of the inhibitor. All the incubations were performed for 24 h at room temperature. Amyloid formation was evaluated by the thioflavine T fluorometric assay. The average of two different experiments is shown.

[13] = Kisilevsky et al., 1995; cited from earlier work

Chain of Aβ1-42 (P05067 18-42): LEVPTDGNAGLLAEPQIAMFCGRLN
Chain of Aβ1-40 (P05067 18-40): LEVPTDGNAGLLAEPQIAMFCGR
Chain of Aβ1-40 fibrils (P05067 672-711): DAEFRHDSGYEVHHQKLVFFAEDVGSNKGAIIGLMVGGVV
T1 sequence (P05067 672-711 limits assumed): as the sequence (P05067 672-711) above
Chain of Aβ with heparan-sulfate proteoglycan (P05067 672-711 limits assumed): as the sequence (P05067 672-711) above

COc1cccc2c1C(=O)c1c(O)c3c(c(O)c1C2=O)C[C@@](O)(C(=O)CO)C[C@@H]3O[C@H]1C[C@H](N)[C@H](I)[C@H](C)O1 [IDOX, Anthracycline 4′-iodo-4′-deoxy-doxorubicin]
toxicity [1]: extremely toxic

Aβ18-21: short Aβ fragment (VFFA) [reference compound]
% of amyloid Aβ1-42 (Aβ1-42): 98.5 ± 5.3%
% of amyloid Aβ1-40 (Aβ1-40 [2]): 105 ± 3.2%

CP1: unrelated control peptide of 12 amino acids (VHVSEEGTEPA) [reference compound]
% of amyloid Aβ1-42 (Aβ1-42): 101.3 ± 1.9%
% of amyloid Aβ1-40 (Aβ1-40 [2]): 98.4 ± 1.2%
effect on amyloid formation by PrP106-126 (PrP106-126): No significant effect

CP2: control peptide (GYLTVAAVFRG) [reference compound]
% of amyloid Aβ1-42 (Aβ1-42): 125.3 ± 3.9%
% of amyloid Aβ1-40 (Aβ1-40 [2]): 111.3 ± 4.1%

CP3: control peptide (PADVPLAPRAVD) [reference compound]
% of amyloid Aβ1-42 (Aβ1-42): 94.4 ± 1.4%
% of amyloid Aβ1-40 (Aβ1-40 [2]): 87.7 ± 2.0%

Leu Val Phe Phe Ala [Aβ17-21, reference compound]
% of amyloid Aβ1-42 (Aβ1-42): 92.3 ± 3.4%
% of amyloid Aβ1-40 (Aβ1-40 [2]): 89.2 ± 2.7%

Pro-Phe-Phe [iAβ6]
% of amyloid Aβ1-42 (Aβ1-42): 88.9 ± 2.6%
% of amyloid Aβ1-40 (Aβ1-40 [2]): 108.1 ± 7.9%

anti-amyloid peptide 1: 15-amino acid anti-amyloid peptide (SRGDLPFFPVPIGDS)
inhibition of fibril formation of the amyloid-A peptide [3]: inhibits the fibril formation
inhibition of fibril formation of the gelsolin related amyloid peptide [4]: inhibits the fibril formation
dissolution of preformed Aβ fibrils (Aβ [5]): Dissolution of preformed fibrils also occurred
inhibition of amyloid fibril formation (Aβ [6]): 90%

control peptide: 12 residue non-related control peptide (VHVSEEGTEPEA) [reference compound]
amyloid-like material formed by the peptide alone, electron microscopy [7]: formed no amyloid-like material
effect on amyloid formation by Aβ1-42 (Aβ1-42; FIG. 12): did not alter amyloid formation
effect on Aβ1-40 fibril formation by electron microscopy (Aβ1-40 [8]): did not produce any effect
effect on amyloid formation by Aβ1-40 (Aβ1-40 [2]; FIGS. 12 and 13): did not alter amyloid formation

iAβ1: shorter derivative of iAβ (RDLPFFPVD)
% of amyloid Aβ1-42 (Aβ1-42): 85.7 ± 11.6%
% of amyloid Aβ1-40 (Aβ1-40 [2]): 55.2 ± 2.1%

iAβ2: seven amino acid residue shorter derivative of iAβ (LPFFPVD)
% of amyloid Aβ1-42 (Aβ1-42): 61.3 ± 3.0%
% of amyloid Aβ1-40 (Aβ1-40 [2]): 36.7 ± 4.8%

iAβ3: shorter derivative of iAβ; valine inserted into the sequence of SEQ ID NO:18 (LPFFVD)
% of amyloid Aβ1-42 (Aβ1-42): 87.1 ± 6.1%
% of amyloid Aβ1-40 (Aβ1-40 [2]): 90.1 ± 1.3%

iAβ4: five residue derivative of iAβ; proline substituted for valine of Aβ 17-21, aspartic acid at the end (LPFFD)
% of amyloid Aβ1-42 (Aβ1-42): 45.4 ± 0.6%
% of amyloid Aβ1-40 (Aβ1-40 [2]): 28.7 ± 1.7%

iAβ5: shorter derivative of iAβ (LPFF)
% of amyloid Aβ1-42 (Aβ1-42): 82.4 ± 5.0%
% of amyloid Aβ1-40 (Aβ1-40 [2]): 92.1 ± 1.3%

iAβ: 11 amino acid peptide partially homologous to Aβ residues 17-21, with proline residues and charged ends (RDLPFFPVPID)
effect on heparan-sulfate proteoglycan-induced Aβ fibrillogenesis [9]: blocked
amyloid-like material formed by the peptide alone, electron microscopy [7]: formed no amyloid-like material
aggregation of the peptide ([7]; even at high concentrations (4 mg/ml) or after more than 30 days of incubation): did not aggregate
inhibition of amyloid formation (Aβ1-42; 5-fold molar excess of iAβ over Aβ1-42, 24 h): 28.7%
inhibition of amyloid formation (Aβ1-42; 20-fold molar excess of iAβ over Aβ1-42, 24 h): 72.3%
inhibition of amyloid formation (Aβ1-42; 40-fold molar excess of iAβ over Aβ1-42, 24 h): 80.6%
% of amyloid Aβ1-42 (Aβ1-42): 57.9 ± 1.3%
effect on Aβ1-40 fibril formation by electron microscopy (Aβ1-40 [8]): only amorphous aggregates were obtained
dissolution of preformed Aβ1-40 fibrils by electron microscopy (Aβ1-40 [8]; fibrils preformed 6 days at 37° C., then 2 days with 1:40 molar ratio Aβ:iAβ): almost completely dissolved
amyloid formed, as % of the amyloid detectable in the absence of inhibitor (Aβ1-40 [2]; 5-fold molar excess of iAβ): 33.9%
amyloid formed, as % of the amyloid detectable in the absence of inhibitor (Aβ1-40 [2]; 20-fold molar excess of iAβ): 13.7%
% of amyloid Aβ1-40 (Aβ1-40 [2]): 25.5 ± 0.7%
maximum quenching of Aβ fluorescence, % of total fluorescence (Aβ1-40 [10]; at approximately 4 μM of iAβ, 25° C., 5 mM Tris pH 7.4): 12.6%
Kd (Aβ1-40 [10]; non-linear regression of binding data to a rectangular hyperbola, read-out: relative dissociation constant): 75.9 ± 6.5 nM
incubation time to maximum level of fibril dissolution (Aβ1-40 fibrils; 40-fold molar excess of iAβ (FIG. 14B), Aβ variant not stated): 2 days
dissolution of preformed Aβ1-40 fibrils (Aβ1-40 fibrils; 40-fold molar excess of iAβ, 24 h incubation): almost complete dissolution
Aβ1-42 fibril reduction (Aβ1-42 fibrils): 51%
decrease of the area occupied by amyloid in the spleen versus animals treated without the inhibitor ([11]; 5 mg iAβ injected together with AEF after 24 h preincubation, 5 days): approximately 86.4%
amyloid in spleen by image analysis, AEF/SN + iAβ, single animal ([11]; AEF 100 μg preincubated 24 h with 5 mg peptide, sacrificed at 5 days, AEF/SN alone average 31.2): 4.35 and 3.68 and 5.32 and 3.67
amyloid in spleen by image analysis, AEF/SN + iAβ, Average ± SE ([11]; four animals, AEF 100 μg preincubated 24 h with 5 mg peptide, 5 days, AEF/SN alone 31.2 ± 0.75): 4.26 ± 0.39
effect on apo E-induced promotion of Aβ fibrillogenesis [12]: blocked the promotion of Aβ fibrillogenesis

poly- (vinylsulfonate)
toxicity [13]: acutely toxic
